Data taken from patent US11958842B2, “Substituted phenazines and methods of treating cancer and bacterial diseases” (Adjutec Pharma AS, priority 2016, dated 2024).
Read-outs that look alike come from different tables or passages of the source.

Columns and labels:
IPC-81 rat AML cells = assay: Anti-AML activity, WST-1 viability (Example 72); assay type: cell-based; settings: IPC81, IPC-81 cells
Summary of the method: (§1)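 Rat IPC-81 cells in DMEM with 10% horse serum and Molm13 cells in RPMI with 10% FBS, seeded at 150 000 cells/ml with compound dilution series. After 22 h exposure, WST-1 added for a further 2 h; absorbance read at 450 nm (620 nm reference) as viability.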

Molm13 cells = assay: Anti-AML activity, WST-1 viability (Example 72); assay type: cell-based; settings: Homo sapiens, Molm 13 cells, WST-1
Summary of the method: as §1

IC50 (Molm13 cells; 2% O2, 24 h of incubation, read-out: Molm 13 IC50 2% O2): 1100 nM
IC50 (Molm13 cells; 20% O2, 24 h of incubation, read-out: Molm 13 IC50 20% O2): 1400 nM
Compound: COc1cccc2c1[n+]([O-])c1cccc(O)c1[n+]2O [Example 5a, 1-hydroxy-6-methoxyphenazine 5.10-dioxide, reference compound]
IC50 (IPC-81 rat AML cells; 2% O2, 24 h of incubation, WST-1, read-out: IPC-81 IC50 2% O2): 3200 nM
IC50 (IPC-81 rat AML cells; 20% O2, 24 h of incubation, WST-1, read-out: IPC-81 IC50 20% O2): 2400 nM
